Source: patent US20080280810A1, “PEPTIDES HAVING AFFINITY FOR BODY SURFACES” (priority 2006, published 2008)

How the values were obtained:
Set-up in all cases: species or system human
[1] = Co-application of multi-block peptide with semi-permanent dye (Arianor Ebony), color retention; details: difference in Delta E between peptide sample and peptide free control after 3 embrocation cycles (about 12 manual shampoos); pH 8.5-9.0; >2 benefit, >4 substantial benefit
Description: A 0.5% aqueous solution of Arianor Ebony (Sensient Technologies Corp, Milwaukee, Wis.) containing 3% benzyl alcohol and 0.05% diazolidinyl urea (biocide) was prepared. Dye insolubles were removed by filtration and the pH of the dye solution was adjusted to 8.50-9.0, using ethanolamine.
Approximately 1 mL of the dye solution was added to selected wells of a 24-well plate (Thomson Instrument Co., Oceanside, Calif.; part # 931565). A multi-block peptide (see Table 12) was dissolved in a solution consisting of 3 wt % benzyl alcohol and 95 wt % water to yield a peptide concentration of 2 wt % or approximately 20 mg/mL. The pH was adjusted to 8.5-9.0 using ethanolamine. The peptide solution was then pipetted into test wells containing dye solution in the amount of 1 mL or 0.2 mL respectively. The total volume in each test well was then adjusted to 2 mL where necessary using 3% aqueous benzyl alcohol (pH adjusted to 8.5-9.0 with ethanolamine). Peptide free controls consisted of 1 mL of dye solution diluted to 2 mL with the pH adjusted aqueous benzyl alcohol solution.
Baseline […] readings were made on one inch long tresses (see below) using an X-RITE® SP78™ Sphere Spectrophotometer (X-Rite, Inc., Grandville, Mich.), by placing the hair tress into the photosensor and calculating L*, a* and b* parameters representing the photometer response. All measurements were the average of three individual determinations.
The tresses (potted on one end with resin) of natural white, 85% gray or regular bleached hair (International Hair Importers and Products, Bellerose, N.Y.) were immersed in the peptide/dye solution and the entire well plate was agitated on a VORTEX-GENIE® 2 Mixer (Scientific Industries, Bohemia, N.Y.) at a speed setting of 1 for 30 minutes. The tresses were removed from the wells, rinsed for 30 seconds under flowing deionized water and then air dried.
The following complement of beads was then added to each well containing a hair tress: (8 beads in all; 4 Novagen Coli Rollers Plating Beads—sterilized (EMD Biosciences, San Diego, Calif.; Catalog No. 71013), 2 BioSpec 6.35 mm glass beads (BioSpec Products, Bartlesville, Okla.; Catalog No. 11079635), and 2 BioSpec 3.2 mm Stainless Steel Bead (Catalog No. 11079132ss).
Then 2.5 mL of aqueous 50% Pantene Pro V® shampoo (Proctor & Gamble Co., Cincinnati, Ohio) was pipetted into each well. The plate was placed on a VWR® VX-2500 Multi-tube Vortexer (VWR, West Chester, Pa.) for 5 minutes to simulate shampooing with embrocation. The hair tresses were then rinsed under flowing deionized water and air dried. This cycle was repeated two more times except that the length of time was 10 minutes for both subsequent embrocation cycles. (This treatment was previously determined to simulate approximately 12 manual shampoo cycles.) At the conclusion of the third embrocation cycle L*, a* and b* values were measured and Delta E values (ΔE) were calculated using equation 1 below:
where L*=the lightness variable and a* and b* are the chromaticity coordinates of CIELAB colorspace as defined by the International Commission of Illumination (CIE) (Minolta, Precise Color Communication—Color Control From Feeling to Instrumentation, Minolta Camera Co., 1996).
The Delta E value (ΔE) indicates color retention relative to the non-dyed hair and larger Delta E values indicate better performance. Values listed in the table represent the difference in Delta E values between the peptide-containing sample and the peptide free control. This difference is indicative of color retention after shampoo or water rinse treatments and positive values indicate better performance relative to the peptide free controls (Table 12).

[2] = Color retention after shampoo treatment, peptide as sealant with Basic Red 2 dye; details: 0.25 wt % Basic Red 2, peptide 0.25 wt %, 60 min contact, after 10 shampoo treatments; dye alone 29.70
Description: The peptides used in this Example were prepared as described in Examples 1 and 2. The color retention was quantified using a spectrophotometric measurement technique. A peptide given as SEQ ID NO:41 or SEQ ID NO:42 (38 mg), produced via fermentation as described in Examples 1 and 2, was added to 15 g of an aqueous 0.25 wt % solution of Basic Red 2 (Abbey Color, Philadelphia, Pa.) and the solution was allowed to stir for 1 h. A natural white hair tress (1 cm wide, potted, International Hair Importers & Products Inc., Bellerose, N.Y.) was inserted into a 15 mm×125 mm test tube and 13 mL of the peptide/dye mixture was injected into the test tube. The hair tress was immersed in contact with the colorant solution for 60 min and the colorant solution was agitated using a magnetic stirrer. The tress was removed, allowed to drip dry, and then air dried for 30 min. The hair tress was then subjected to a water rinse using copious amounts of deionized water, followed by a shampoo treatment with embrocation for 30 seconds. The shampoo treatment involved the application of Pantene Pro-V Sheer Volume shampoo (Proctor & Gamble, Cincinnati, Ohio) to the hair as follows. […] The color intensity after the shampoo was measured as described in Examples 4-7.

[3] = Color retention after shampoo treatment, peptide as sealant with Basic Violet 2 dye; details: for Delta E: 0.50 wt % Basic Violet 2, peptide 0.25 wt %, 30 min contact, after 10 shampoo treatments, dye alone 37.34; for hair color retention compared to the dye alone (in words): Basic Violet 2, by Delta E values, vs Comparative Example 13
Description: The peptides used in this Example were prepared as described in Examples 1 and 2. The color retention was quantified using a spectrophotometric measurement technique. A peptide given as SEQ ID NO:41 or SEQ ID NO:42 (38 mg), produced via fermentation as described in Examples 1 and 2, was added to 15 g of an aqueous 0.50 wt % solution of Basic Violet 2 (Abbey Color, Philadelphia, Pa.) and the solution was allowed to stir for 1 h. A natural white hair tress (1 cm wide, potted, International Hair Importers & Products Inc., Bellerose, N.Y.) was inserted into a 15 mm×125 mm test tube and 13 mL of the peptide/dye mixture was injected into the test tube. The hair tress was immersed in contact with the colorant solution for 30 min and the colorant solution was agitated using a magnetic stirrer. The tress was removed, allowed to drip dry, and then air dried for 30 min. The hair tress was then subjected to a water rinse using copious amounts of deionized water, followed by a shampoo treatment with embrocation for 30 seconds. The shampoo treatment involved the application of Pantene Pro-V Sheer Volume shampoo (Proctor & Gamble, Cincinnati, Ohio) to the hair as follows. A quarter-sized drop of the shampoo was distributed evenly over the hair tress and then was massaged aggressively into the hair for 30 sec, after which the hair tress was rinsed with water to remove the shampoo. The hair tress was then dried at room temperature. The shampooing step was repeated 9 more times to give a total of 10 shampoo treatments. The entire procedure described above was repeated without the addition of the hair-binding peptide to serve as a control. The color intensity after the shampoo was measured as described in Examples 4-7.

Substance | ΔE Retention Ebony Dye with 85% Gray Hair [1] | Delta E [2] | Delta E [3] | hair color retention compared to the dye alone (in words) [3]
P-EQISGSLVAAPW-KRKRK-D (PEQISGSLVAAPWKRKRKD; Peptide having affinity for hair) [HC 74] | 7.5 | 33.64 | 38.91 | a small improvement in hair color retention
P-TPPELLHGAPRS-KRKRK-D (PTPPELLHGAPRSKRKRKD; Peptide having affinity for hair) [HC 71] | 2.9 | 32.36 | 37.02 | no improvement in hair color retention
